What was measured:
Assay type in all cases: physicochemical
[1] = Thermal solid-form transformation (DSC, temperature controlled XRPD); details: for temperature of thermal transformation into Sodium salt Form A: incubation at high temperature; for glass transition temperature, above which recrystallization is likely to occur: midpoint
Experimental: DSC curves were recorded using a Mettler-Toledo™ differential scanning calorimeter DSC820, DSC821 or DSC1 with a FRS05 sensor. System suitability tests were performed with indium as reference substance and calibrations were carried out using indium, benzoic acid, biphenyl and zinc as reference substances.
(§1) For the measurements, approximately 2-6 mg of sample were placed in aluminum pans, accurately weighed and hermetically closed with perforation lids. Prior to measurement, the lids were automatically pierced resulting in approx. 1.5 mm pin holes. The samples were then heated under a flow of nitrogen of about 100 mL/min using heating rates of usually 10 K/min.
(§2) X-ray powder diffraction patterns were recorded at ambient conditions in transmission geometry with a STOE STADI P diffractometer (Cu K ? ? radiation, primary monochromator, position sensitive detector, angular range 3° to 42° 2Theta, approximately 60 minutes total measurement time). Approximately 25 mg of sample were prepared and analyzed without further processing (e.g. grinding or sieving) of the substance.

[2] = Relative stability of the solid forms (statements in words); details: for solid form stability: in words
[3] = Hygroscopicity of the solid forms (DVS sorption/desorption isotherms); details: in words
Experimental: (§3) DVS isotherms were collected on a DVS-1, DVS-HT and DVS Intrinsic (SMS Surface Measurements Systems) moisture balance system. The sorption/desorption isotherms were measured stepwise in a range of 0% RH to 90% RH at 25° C. A weight change of <0.002 mg/min was chosen as criterion to switch to the next level of relative humidity (with a maximum equilibration time of 24 hours, if the weight criterion was not met). The data were corrected for the initial moisture content of the samples; that is, the weight after drying the sample at 0% RH was taken as the reference point.

[4] = Humidity-induced solid-form transformation (humidity controlled XRPD, DVS); details: at 25° C.
Experimental: as §3, §2

[5] = Decomposition temperature of the solid form (thermal analysis)
Experimental: TGA analysis was performed on a Mettler-Toledo™ thermogravimetric analyzer (TGA850 or TGA851). System suitability tests were performed with Hydranal as reference substance and calibrations using aluminum and indium as reference substances.
as §1, with “thermogravimetric analyses, approx. 5 to 10” for “measurements, approximately 2-6”, “50” for “100”, “using a” for “using”, “rate” for “rates”, “5” for “usually 10”

[6] = Competing slurry experiment between Free acid Forms A, B and C; details: isopropyl acetate, 20 and 60° C., seeded with Free acid Form B and Form C, 14 days, wet stage XRPD
Experimental: Description of a typical competing slurry experiment:
200 and 300 mg of form A of (S)-2-methoxy-3-{4-[2-(5-methyl-2-phenyl-oxazol-4-yl)-ethoxy]-benzo[b]thiophen-7-yl}-propionic acid were each suspended in ca. 1 mL of isopropyl acetate at 20 and 60° C., respectively. After 24 h the two suspensions were seeded with approximately 10 mg of Free acid Form B and Free acid Form C. After 14 days the crystals were harvested by filtration and analyzed in wet stage by XRPD.

Molecule: CO[C@@H](Cc1ccc(OCCc2nc(-c3ccccc3)oc2C)c2ccsc12)C(=O)[O-].[Na+] [Sodium salt Form B, sodium (S)-2-methoxy-3-{4-[2-(5-methyl-2-phenyl-oxazol-4-yl)-ethoxy]-benzo[b]thiophen-7-yl}-propanoate]
- temperature of thermal transformation into Sodium salt Form A [1]: > 120 °C
- solid form stability [2]: metastable

Molecule: CO[C@@H](Cc1ccc(OCCc2nc(-c3ccccc3)oc2C)c2ccsc12)C(=O)[O-].[Na+] [Sodium salt amorphous form, sodium (S)-2-methoxy-3-{4-[2-(5-methyl-2-phenyl-oxazol-4-yl)-ethoxy]-benzo[b]thiophen-7-yl}-propanoate]
- hygroscopicity [3]: hygroscopic
- temperature of thermal transformation into Sodium salt Form A [1]: > 115 °C
- glass transition temperature, above which recrystallization is likely to occur [1]: approx. 65.5 °C
- relative humidity above which transformation into hydrated form occurs [4]: Above 50 % RH

Molecule: diisopropylammonium (S)-2-methoxy-3-{4-[2-(5-methyl-2-phenyl-oxazol-4-yl)-ethoxy]-benzo[b]thiophen-7-yl}-propanoate [Diisopropylammonium salt Form A]
- hygroscopicity [3]: slightly hygroscopic
- decomposition temperature [5]: approx. 100 °C

Molecule: CO[C@@H](Cc1ccc(OCCc2nc(-c3ccccc3)oc2C)c2ccsc12)C(=O)O [Free acid Form A, (S)-2-methoxy-3-{4-[2-(5-methyl-2-phenyl-oxazol-4-yl)-ethoxy]-benzo[b]thiophen-7-y1}-propionic acid]
- hygroscopicity [3]: non-hygroscopic
- temperature of transformation into Free acid Form B ([1]; temperature controlled XRPD): > 85 °C
- solid form obtained in competing slurry [6]: pure Free acid Form A is obtained
- thermodynamic stability among polymorphs ([2]; below ca. 60° C.): thermodynamically most stable polymorph

Molecule: CO[C@@H](Cc1ccc(OCCc2nc(-c3ccccc3)oc2C)c2ccsc12)C(=O)[O-].[Na+] [Sodium salt Form C, sodium (S)-2-methoxy-3-{4-[2-(5-methyl-2-phenyl-oxazol-4-yl)-ethoxy]-benzo[b]thiophen-7-yl}-propanoate]
- relative humidity below which reversible transformation into a dehydrated solid form occurs ([4]; humidity controlled XRPD): < 15 %-RH

Molecule: CO[C@@H](Cc1ccc(OCCc2nc(-c3ccccc3)oc2C)c2ccsc12)C(=O)O [Free acid Form D, (S)-2-methoxy-3-{4-[2-(5-methyl-2-phenyl-oxazol-4-yl)-ethoxy]-benzo[b]thiophen-7-yl}-propionic acid]
- solid form stability [2]: transforms into Free acid Form B upon storage at ambient conditions over time

Molecule: CO[C@@H](Cc1ccc(OCCc2nc(-c3ccccc3)oc2C)c2ccsc12)C(=O)O [amorphous form of the Free acid, (S)-2-methoxy-3-{4-[2-(5-methyl-2-phenyl-oxazol-4-yl)-ethoxy]-benzo[b]thiophen-7-yl}-propionic acid]
- hygroscopicity ([3]; listed as amorphous form of (S)-2-methoxy-3-{4-[2-(5-methyl-2-phenyl-oxazol-4-yl)-ethoxy]-): hygroscopic
- glass transition temperature, above which recrystallization is likely to occur [1]: approx. 44 °C

Molecule: CO[C@@H](Cc1ccc(OCCc2nc(-c3ccccc3)oc2C)c2ccsc12)C(=O)O [Free acid Form C, (S)-2-methoxy-3-{4-[2-(5-methyl-2-phenyl-oxazol-4-yl)-ethoxy]-benzo[b]thiophen-7-yl}-propionic acid]
- temperature of transformation into Free acid Form B ([1]; extrapolated peak DSC): ca. 150 °C
- thermodynamic stability among polymorphs ([2]; at ambient temperature): thermodynamically less stable than Free acid Form A and Free acid Form B

Molecule: CO[C@@H](Cc1ccc(OCCc2nc(-c3ccccc3)oc2C)c2ccsc12)C(=O)O [Free acid Form B, (S)-2-methoxy-3-{4-[2-(5-methyl-2-phenyl-oxazol-4-yl)-ethoxy]-benzo[b]thiophen-7-y1}-propionic acid]
- temperature below which spontaneous transformation into Free acid Form A occurs ([1]; extrapolated peak DSC): < −5 °C
- temperature of spontaneous solid-solid retransformation into Free acid Form A ([1]; observed at this temperature or below): ≤ 45 °C

Molecule: CO[C@@H](Cc1ccc(OCCc2nc(-c3ccccc3)oc2C)c2ccsc12)C(=O)O [Free acid Form E, (S)-2-methoxy-3-{4-[2-(5-methyl-2-phenyl-oxazol-4-yl)-ethoxy]-benzo[b]thiophen-7-yl}-propionic acid]
- solid form stability [2]: transforms into Free acid Form B upon mild heating

Molecule: CO[C@@H](Cc1ccc(OCCc2nc(-c3ccccc3)oc2C)c2ccsc12)C(=O)[O-].[Na+] [Sodium salt Form A, sodium (S)-2-methoxy-3-{4-[2-(5-methyl-2-phenyl-oxazol-4-yl)-ethoxy]-benzo[b]thiophen-7-yl}-propanoate]
- temperature of transformation into Sodium salt Form B [1]: > 208 °C
- relative humidity above which transformation into hydrated form occurs [4]: > 80 % RH
